{
  "source": "paper PMC12746157",
  "about": "“Light-Regulated Agonists Spatiotemporally Activating the Vitamin D Receptor Mitigate Psoriasis-like Inflammation in Mice without Inducing Hypercalcemia” (ACS Central Science, 2025)",
  "key": {"[1]": {"assay": "Photoisomerization quantum yield (MATLAB regression)", "format": "physicochemical", "experimental": "(§1) The UV–vis absorbance spectra of all molecules were measured in the dark and after the application of light of different wavelengths ranging from 365 to 770 nm (Figure A and Figures S1–S3). […] Consequently, violet/UV light below 405 nm efficiently promoted photoisomerization, which produced a dramatic decrease in the π-π* band and a significant increase in the n-π* band at around 445 nm (Table ). […] The proportion of molecules at the PSS in trans isomer upon constant illumination with light at 525 nm and cis at 365 nm was in general above 50%, reaching a remarkable >99% for compound 11d (Table and Figures S4 and S5). […] The greater stability of the trans isomer was consistent with previous quantum mechanical and molecular mechanics predictions. Measuring the photoisomerization properties of compound PhotoVDRM allowed us to determine the photoisomerization quantum yields of the compound by solving a differential equation for photoisomerization. We used MATLAB to perform regression and arrive at the following photoisomerization quantum yields: ϕ365 nm (trans) = 0.0427, ϕ365 nm (cis) = 0.0501, ϕ470 nm (trans) = 0.1857, and ϕ470 nm (cis) = 0.2281 (Figure S9). Compound PhotoVDRM was also evaluated in aqueous buffer used for pharmacological experiments (0.5% DMSO) showing a thermal relaxation of 3 h, almost 7 times faster than in pure DMSO (Figure B). […] A deeper photocharacterization of PhotoVDRM allowed us to measure the kinetics of photoconversion upon constant illumination with two wavelengths and three light intensities (Figure D and Figure S10). […] Indeed, with LED devices producing light at intensities as low as 0.05 mW/mm^2 we were able to transform trans to cis in around 15.5 s. This time was reduced to 6 and 2 s when the light intensity was increased to 0.15 and 0.75 mW/mm^2. […] Therefore, we proceeded to test the ability of the chemical library to activate the VDR under different light conditions."}, "[2]": {"assay": "Thermal relaxation and photoisomerization rates of PhotoVDRM in aqueous assay buffer", "format": "physicochemical", "details": "for photoisomerization rate (τ) trans to cis: 365 nm, aqueous buffer 0.6% DMSO", "experimental": "as §1, with “S9).” for “S9). Compound PhotoVDRM was also evaluated in aqueous buffer used for pharmacological experiments (0.5% DMSO) showing a thermal relaxation of 3 h, almost 7 times faster than in pure DMSO (Figure B).”\n2 Photochemical characterization of compound PhotoVDRM. (A) UV–vis absorption spectra of compound PhotoVDRM under different light conditions. (B) Half-lifetime estimation of compound PhotoVDRM, absorbance was measured at 365 nm. (C) Multiple cis/trans isomerization cycles (365/460 nm) show the stability of the compound over 6 cycles of light application. (D) Photoisomerization under constant illumination with light at 365 nm (violet shade) and 470 nm (blue shade). Light was applied with a CoolLED pe-4000 at 50% intensity that corresponded to 0.75 mW/mm^2 for the light at 365 nm and 0.56 mW/mm^2 for the light at 470 nm; 10% intensity corresponded to 0.15 mW/mm^2 for the light at 365 nm and 0.12 mW/mm^2 for the light at 470 nm; and 5% intensity corresponded to 0.06 mW/mm^2 for the light at 365 nm and 0.05 mW/mm^2 for the light at 470 nm. The photoisomerization rates (τ) using light at 365 nm were measured as 2, 6, and 15.5 s with 50%, 10% and 5% of intensity. […]"}},
  "data": [
    {"smiles": "Cc1cc(OCC(O)C(C)(C)C)ccc1N=Nc1cccc(-c2ccc(C(=O)O)cc2)c1", "note": "(centres unmarked) [Compound 11b]", "values": [
      {"measurement": "photoisomerization quantum yield ϕ365 nm (cis)", "setting": "[1]; 365 nm, cis", "value": 0.0501},
      {"measurement": "photoisomerization quantum yield ϕ365 nm (trans)", "setting": "[1]; 365 nm, trans", "value": 0.0427},
      {"measurement": "photoisomerization quantum yield ϕ470 nm (cis)", "setting": "[1]; 470 nm, cis", "value": 0.2281},
      {"measurement": "photoisomerization quantum yield ϕ470 nm (trans)", "setting": "[1]; 470 nm, trans", "value": 0.1857},
      {"measurement": "photoisomerization rate (τ) trans to cis", "setting": "[2]; 10% intensity, 0.15 mW/mm^2, 25 °C", "value": 6, "unit": "s"},
      {"measurement": "photoisomerization rate (τ) trans to cis", "setting": "[2]; 50% intensity, 0.75 mW/mm^2, 25 °C", "value": 2, "unit": "s"},
      {"measurement": "thermal relaxation", "setting": "[2]; aqueous buffer used for pharmacological experiments (0.5% DMSO)", "value": 3, "unit": "h"},
      {"measurement": "thermal relaxation in aqueous buffer, times faster than in pure DMSO", "setting": "[2]; buffer vs pure DMSO", "value": "~7", "unit": "times"}
    ]}
  ]
}
